Test results: patent US9212196B2, “Hypophosphorous acid derivatives having antihyperalgic activity and biological applications thereof” (UNIVERSITE PARIS DESCARTES, priority 2011, dated 2015)

What was measured:
[1] = system: carrageenan inflammatory pain model; assay: Paw pressure test in carrageenan inflammatory pain model in rats; type: in vivo, rat
Experimental: After the induction period of the neuropathy or inflammation, various amounts of derivative 2 dissolved in serum have been injected in rats, (from 0.5 to 15 μg/rat, i.t. from 1 to 30 mg/kg, i.p.) on time-course of vocalization threshold to paw pressure. The results obtained on healthy animals are given on FIG. 1. They are expressed by the time course curves of means+/−SEM of vocalization threshold in grams (n=6-8 rats per group) (A) or by the area under the curve (B). Morphine (10 μg/rat, i.t.) is used as a positive control. […] FIG. 2 illustrates the effect of intrathecal administration of derivative 2 on the vocalization threshold to paw pressure in the carrageenan inflammatory pain model (effect of derivative 2 (0.5, 1, 5, 10 μg/rat, i.t.) on time-course of vocalization threshold to paw pressure). Morphine (10 μg/rat, i.t.) is used as a positive control. […] Nociceptive thresholds, expressed in grams (g), were measured with a Ugo Basile analgesimeter (Apelex, tip diameter of the probe: 1 mm, weight: 30 g) by applying an increasing pressure to the right hind paw of rats until a squeak (vocalization threshold) was obtained (cut-off was 750 g except carrageenan treated animals for which the cut-off was 500 g). The treatments were done after the measurement of two consecutive stable vocalization threshold values and their effects were assessed 15, 30, 45, 60, 90, and 120 min after. […]

[2] = molecular target: mGlu4 (Homo sapiens (Human), UniProt Q14833); assay: Agonist activity on mGlu4 in transfected HEK293 cells, intracellular calcium release (Fluo4-AM); type: cell-based; conditions: transfected cells, calcium release; read-out: mGlu4 EC50 μM (n)
mGlu4, sequence (Q14833 33-912): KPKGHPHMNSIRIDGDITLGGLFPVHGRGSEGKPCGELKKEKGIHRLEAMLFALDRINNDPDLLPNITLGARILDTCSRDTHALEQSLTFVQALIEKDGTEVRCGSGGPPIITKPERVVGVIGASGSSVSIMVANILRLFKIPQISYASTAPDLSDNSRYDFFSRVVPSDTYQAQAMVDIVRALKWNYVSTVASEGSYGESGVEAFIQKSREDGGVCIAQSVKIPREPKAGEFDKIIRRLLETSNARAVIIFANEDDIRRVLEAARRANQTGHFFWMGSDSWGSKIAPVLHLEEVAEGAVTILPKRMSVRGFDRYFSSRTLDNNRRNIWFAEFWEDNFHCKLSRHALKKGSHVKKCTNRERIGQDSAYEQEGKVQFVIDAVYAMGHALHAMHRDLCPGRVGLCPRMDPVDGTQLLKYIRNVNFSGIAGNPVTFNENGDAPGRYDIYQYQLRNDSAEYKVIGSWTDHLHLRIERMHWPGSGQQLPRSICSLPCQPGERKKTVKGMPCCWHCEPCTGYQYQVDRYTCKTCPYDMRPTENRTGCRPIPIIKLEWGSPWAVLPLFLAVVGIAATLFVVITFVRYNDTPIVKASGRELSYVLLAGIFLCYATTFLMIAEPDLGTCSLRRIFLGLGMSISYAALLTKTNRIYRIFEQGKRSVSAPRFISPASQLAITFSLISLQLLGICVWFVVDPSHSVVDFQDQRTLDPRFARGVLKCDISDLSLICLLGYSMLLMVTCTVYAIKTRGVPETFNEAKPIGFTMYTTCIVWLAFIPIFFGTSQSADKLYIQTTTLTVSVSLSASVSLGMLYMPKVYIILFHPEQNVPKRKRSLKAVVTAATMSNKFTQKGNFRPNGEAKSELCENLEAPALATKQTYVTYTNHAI
Excerpt: (§1) The EC50's are compared to those of L-AP4 (L-2-amino-4-phosphonobutyric acid) used as a reference.
(§2) Metabotropic glutamate receptors were transiently transfected in HEK293 cells by electroporation as described elsewhere (Brabet I. et al., 1998) and plated in 96-well microplates. The high affinity glutamate transporter EAAC1 was co-transfected with the receptor in order to avoid any influence of glutamate released by the cells in the assay medium. In the experiments carried out by the inventors, Group-III mGluRs were co-transfected with a chimeric G-protein which couples the activation of the receptor to the phospholipase-C (PLC) pathway. Thus receptor activation induces production of inositol phosphate (IP) which in turn induces intracellular Ca^2+ release. Receptor activity was then determined by measurement of the IP production or Ca release as already described (Goudet C. et al., PNAS 2004). For intracellular calcium measurements, cells expressing mGluRs were loaded with Ca2+-sensitive fluorescent dye Fluo-4 AM (Invitrogen, Cergy-Pontoise, France) dissolved in Hanks' balanced salt solution (HBSS, Invitrogen, Cergy-Pontoise, France) containing 2.5 mM Probenicid (Sigma-Aldrich Chemie, Saint-Quentin Fallavier, France) for 1 h at 37° C., then washed and incubated with HBSS containing probenecid. A drug plate was prepared with the various concentrations of agonist to be tested and drug solution was added in each well after 20 s of recording. Fluorescence signals (excitation 485 nm, emission 525 nm) were measured by using the fluorescence microplate reader Flexstation III (Molecular Devices, Saint-Grégoire, France) at sampling intervals of 1.5 s for 60 s. All points are realized in triplicate.
(§3) The dose-response curves were fitted using the GraphPad Prism program and the following equation: y=[(ymax−ymin)/(1+(x/EC50)n)]+ymin where EC50 is the concentration of the compound necessary to obtain the half maximal effect and n is the Hill coefficient.

[3] = molecular target: mGlu8 (Homo sapiens (Human), UniProt O00222); assay: Agonist activity on mGlu8 in transfected HEK293 cells, intracellular calcium release (Fluo4-AM); type: cell-based
mGlu8, sequence (O00222 34-908): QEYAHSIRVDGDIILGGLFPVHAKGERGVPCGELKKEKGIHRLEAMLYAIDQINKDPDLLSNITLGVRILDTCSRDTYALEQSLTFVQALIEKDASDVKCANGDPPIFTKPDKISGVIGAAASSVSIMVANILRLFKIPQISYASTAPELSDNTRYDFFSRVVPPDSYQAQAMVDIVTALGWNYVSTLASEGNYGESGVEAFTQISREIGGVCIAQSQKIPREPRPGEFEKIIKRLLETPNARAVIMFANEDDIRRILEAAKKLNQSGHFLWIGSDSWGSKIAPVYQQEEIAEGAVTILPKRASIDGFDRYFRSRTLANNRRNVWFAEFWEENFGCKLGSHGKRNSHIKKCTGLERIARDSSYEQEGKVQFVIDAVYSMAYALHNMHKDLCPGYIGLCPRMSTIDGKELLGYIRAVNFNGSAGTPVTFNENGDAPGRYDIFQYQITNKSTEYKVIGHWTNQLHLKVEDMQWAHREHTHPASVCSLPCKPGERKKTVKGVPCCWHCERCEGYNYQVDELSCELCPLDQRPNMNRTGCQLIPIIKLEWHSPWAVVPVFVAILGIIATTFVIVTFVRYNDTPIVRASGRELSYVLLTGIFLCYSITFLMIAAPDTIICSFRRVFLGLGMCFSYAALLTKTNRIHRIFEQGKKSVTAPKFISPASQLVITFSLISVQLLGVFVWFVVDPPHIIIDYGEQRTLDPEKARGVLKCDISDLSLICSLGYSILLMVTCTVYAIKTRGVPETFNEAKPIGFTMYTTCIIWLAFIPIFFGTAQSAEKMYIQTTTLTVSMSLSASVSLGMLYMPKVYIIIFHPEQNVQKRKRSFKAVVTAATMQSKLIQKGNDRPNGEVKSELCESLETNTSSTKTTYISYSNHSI
Excerpt: as §1, §2, §3

- EC50 [2]: 0.11 ± 0.02 µM
- mGlu8/4 EC50 ratio ([3]; ratio of mGlu8 EC50 to mGlu4 EC50): 256
- EC50 ([3]; transfected cells, calcium release, read-out: mGlu8 EC50 μM (n)): 29.2 ± 4.2 µM
SMILES: N[C@@H](CCP(=O)(O)C(O)c1ccc(OCC(=O)O)cc1)C(=O)O (stereo partly drawn) [Derivative 2, [((3S)-3-Amino-3-carboxy)propyl][(4-(carboxymethoxy)phenyl)hydroxymethyl]phosphinic Acid]
- antihyperalgesic effect on vocalization threshold to paw pressure ([1]; carrageenan inflammatory pain, rats, 0.5-10 μg/rat i.t., FIG. 2): abolishes the excess of mechanical pain
- antihyperalgesic effect compared to morphine ([1]; inflammatory pain, morphine 10 μg/rat i.t. as control): close to the one of morphine
